This note sets out measurements from BindingDB's records for PubMed 3139864 (Vanderbilt University, 1988).

Where only a bound is given, the exact number is not on record here.

This assay has as its target T1, 5-hydroxytryptamine receptor 2C (Rattus norvegicus, UniProt P08909).
T1 sequence (P08909 whole entry): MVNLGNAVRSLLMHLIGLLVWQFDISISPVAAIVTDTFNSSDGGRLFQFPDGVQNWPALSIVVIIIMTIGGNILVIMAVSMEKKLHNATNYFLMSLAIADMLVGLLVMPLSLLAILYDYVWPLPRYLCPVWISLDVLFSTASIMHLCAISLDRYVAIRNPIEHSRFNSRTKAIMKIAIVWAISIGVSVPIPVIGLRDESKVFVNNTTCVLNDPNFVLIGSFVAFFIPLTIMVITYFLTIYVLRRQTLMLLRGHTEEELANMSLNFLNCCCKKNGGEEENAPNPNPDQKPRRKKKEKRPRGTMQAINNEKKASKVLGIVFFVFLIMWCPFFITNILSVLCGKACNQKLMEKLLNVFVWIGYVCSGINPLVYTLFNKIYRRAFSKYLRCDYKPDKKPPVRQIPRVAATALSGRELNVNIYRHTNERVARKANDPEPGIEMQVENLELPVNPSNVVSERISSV
Usually Ki stands for a dissociation constant, usually derived from enzyme kinetics or from competition with a known ligand. Read a low Ki as a stronger hold on the target. In the case of `CN(C)CCCN1c2ccccc2CCc2ccccc21`, the affinity corresponds to a Ki of 0.1 µM. The figure for `O=C(c1ccc(F)cc1)C1CCN(CCn2c(=O)[nH]c3ccccc3c2=O)CC1` [3-(2-{4-[(4-fluorophenyl)carbonyl]piperidin-1-yl}ethyl)-1,2,3,4-tetrahydroquinazoline-2,4-dione] is 0.03 µM. The figure for `CC1(C)CC(=O)N(CCCCN2CCN(c3ncccn3)CC2)C(=O)C1` [4,4-Dimethyl-1-[4-(4-pyrimidin-2-yl-piperazin-1-yl)-butyl]-piperidine-2,6-dione] is over 10 µM; for `CN(C)CCC(c1ccc(Cl)cc1)c1ccccn1` (centres undefined) [clorfeniramina] it is 3.12 µM.
